Patent US10308960B2, “Methods for treating cells containing fusion genes” (University of Pittsburgh—of the Commonwealth System of …, priority 2014, dated 2019)
≈ marks a conversion by molar mass, not a printed value.

Tests used:
[1] = system: PC3 cells expressing MAN2A1-FER; experiment: Killing of MAN2A1-FER expressing PC3 cells by kinase inhibitors; assay type: cell-based, human; details: for cell death: PC3 transformed with pCDNA4-MAN2A1-FER-FLAG/pCDNA6, MAN2A1-FER expressing, Crisotinib low dosage 24 hours; for specific killing of MAN2A1-FER expressing cells (FIG. 23): expression induced with 5 μg/mL tetracycline
[2] = system: PC3 cells not expressing MAN2A1-FER (Tet−); experiment: Killing of PC3 cells not expressing MAN2A1-FER (Tet−) by kinase inhibitors; assay type: cell-based, human; details: same treatment, cells not expressing the fusion protein (Tet−)
Procedure: FIG. 23. […] Prostate cancer cell line PC3 was transformed with pCDNA4-MAN2A1-FER-FLAG/pCDNA6. Expression of MAN2A1-FER was induced with 5 μg/mL tetracycline. Cells not treated with tetracycline nor any drug were used as background controls.
The second approach is to target EGFR activation by EGFR inhibitors. These include erlotinib, cetuximab, […], canertinib and […]. Many of these drugs were FDA approved and is widely used in a variety of human solid tumors. To interrogate the effectiveness of EGFR activation interruption in treating prostate cancer, we treated MAN2A1-FER transformed PC3 cells with canertinib.

[3] = system: PC3 cells harboring no TMEM135-CCDC67 breakpoint (PC3 + pCMV); experiment: FACS analysis of apoptotic cells (Annexin V), PC3 without breakpoint; assay type: cell-based, human; details: PC3, equally infected, ganciclovir up to 100 μg/ml
Procedure: (§1) FIG. 31A-B. Treatment with nucleotide analogue ganciclovir kills cancer cells expressing EGFP-tk. (A) PC3 or DU145 cells containing the TMEM135-CCDC67 fusion gene were infected with pAD5-Cas9^D10A-gRNA^TMEM135int13-gRNA^CCDC67int9 and pAD-TMEM135int13-EGFP-tk-CCDC67int9. These cells were then incubated with various concentrations of ganciclovir for 24 hours. Cell deaths were then quantified with phycoerythrin labeled Annexin V through flow cytometer. PC3 or DU145 cells harboring no TMEM135-CCDC67 breakpoint were used as controls. (B) Representative sample of cell death induced by ganciclovir on cells infected with pAD5-Cas9^D10A-gRNA^TMEM135int13-gRNA^CCDC67int9 and pAD-TMEM135int13-EGFP-tk-CCDC67int9, and treated with 5 μg/ml ganciclovir. PC3 or DU145 cells harboring no TMEM135-CCDC67 breakpoint were used as controls. Apoptosis was indicated by Annexin V staining.
(§2) Fluorescence activated cell sorting (FACS) analysis of apoptotic cells. The assays were previously described.^8-16 Briefly, the cells treated with pAD5-Cas9^D10A-gRNA^TMEM135int13-gRNA^CCDC67int9/pAD-TMEM135int13-EGFP-tk-CDC67int9, and various concentrations of ganciclovir were trypsinized and washed twice with cold PBS. […] The fluorescence stained cells were analyzed at the fluorescence emission at 533 nm (FL2). […] For each acquisition, 10,000 to 20,000 cells were sorted based on the fluorescence color of the cells. […]

[4] = system: PC3 cells containing TMEM135-CCDC67 breakpoint (PC3 + pCMV-BP); experiment: FACS analysis of apoptotic cells (Annexin V), PC3 with breakpoint; assay type: cell-based, human; details: PC3 with breakpoint infected with both adenoviruses
Procedure: as §1, §2

[5] = system: PC3 cells containing TMEM135-CCDC67 breakpoint; experiment: Ganciclovir cell death after co-transfection of TK donor DNA and nickase-gRNA vector, breakpoint cells; assay type: cell-based, human
Procedure: (§3) FIG. 28A-B. Genetic therapy targeting at TMEM135-CCDC67 genome breakpoint.
(§4) The technique described above was applied to cells having the TMEM135-CCDC67 breakpoint. Since none of the fusion genes identified so far was present in prostate cancer cell lines, a TMEM135-CCDC67 genome breakpoint was created that is identical to the prostate cancer sample were analyzed. The expression of the TMEM135-CCDC67 breakpoint was driven by a CMV promoter. Subsequently, a donor DNA was constructed that encompassed HSV-1 TK and the splicing sites of TMEM135 exon 14. When this donor DNA was co-transfected with a vector that expresses gRNA targeting at the TMEM135-CCDC67 breakpoint into PC3 cells containing this genome breakpoint, integration of TK into the genome was identified (FIG. 28A). […] This is remarkable in considering only 5-10% transfection efficiency using conventional liposome method. […] In light of this promising result, both TMEM135-CCDC67-TK cassette and NicKase-gRNATMEM135-CCDC67-BrkPt DNA are now in the process of packaging into Adenovirus. We will infect the recombinant virus into these cells in the future experiments. This will dramatically improve the delivery efficiency in the subsequent animal study and probably human.

[6] = system: DU145 cells containing TMEM135-CCDC67 breakpoint (DU145 + pCMV-BP); experiment: FACS analysis of apoptotic cells (Annexin V), DU145 with breakpoint; assay type: cell-based; details: DU145 with breakpoint infected with both adenoviruses
Procedure: as §1, §2

[7] = system: PC3 cells without TMEM135-CCDC67 breakpoint; experiment: Ganciclovir cell death after co-transfection of TK donor DNA and nickase-gRNA vector, cells without breakpoint; assay type: cell-based, human; details: same treatment
Procedure: as §3, §4

[8] = system: DU145 cells harboring no TMEM135-CCDC67 breakpoint (DU145 + pCMV); experiment: FACS analysis of apoptotic cells (Annexin V), DU145 without breakpoint; assay type: cell-based; details: DU145, equally infected, ganciclovir up to 100 μg/ml
Procedure: as §1, §2

RWPE1 cells = experiment: Ebselen cell growth inhibition, RWPE1; assay type: cell-based; details: Homo sapiens, RWPE-1
Text: (§5) FIG. 26. […] Untransformed RWPE1, NIH3T3 cells and SLC45A2-AMACR transformed PC3 cells treated with (PC3/SLAM tet+) or without tetracycline (PC3/SLAM tet−) were applied with indicated concentration of Ebselen. Cell growths relative to unapplied controls were examined.
(§6) Therapeutic targeting at SLC45A2-AMACR using racemase inhibitor. To investigate whether targeting SLC45A2-AMACR is a viable approach to treat prostate cancer, we chose 2 approaches: 1) To intercept SLC45A2-AMACR/SHIP2-Akt pathway with small molecules; and 2) to block the ectopic racemase activity of SLC45A2-AMACR with ebselen or trifluoro-ibuprofen. […] This is probably due to Pten negative status of PC3 cells such that Akt pathway is fully activated regardless the presence of SLC45A2-AMACR. On the other hand, when we applied ebselen, the potent inhibitor of racemase of AMACR, to SLC45A2-AMACR expressing PC3 cells, 5 fold higher sensitivity of cell growth inhibition was found for PC3 cells transformed with pCDNA4-SLC45A2-AMACR-FLAG/pCDNA6 over the controls.

[9] = system: SLC45A2-AMACR transformed PC3 cells treated with tetracycline (PC3/SLAM tet+); experiment: Ebselen cell growth inhibition, PC3/SLAM tet+; assay type: cell-based, human
Text: as §5, §6

[10] = system: SLC45A2-AMACR transformed PC3 cells without tetracycline (PC3/SLAM tet−); experiment: Ebselen cell growth inhibition, PC3/SLAM tet−; assay type: cell-based; details: Homo sapiens, PC-3
Text: as §5, §6

NIH3T3 cells = experiment: Ebselen cell growth inhibition, NIH3T3; assay type: cell-based; details: Mus musculus
Text: as §5, §6

In the case of `C[C@@H](Oc1cc(-c2cnn(C3CCNCC3)c2)cnc1N)c1c(Cl)ccc(F)c1Cl` [Crisotinib], the cell death [1] is reported as 31%, the “lowering of cancer killing EC50 by expression of MAN2A1-FER” value ([1]; dosage effect analysis, expressing vs not expressing) is reported as roughly 100 fold and the “specific killing of MAN2A1-FER expressing cells (FIG. 23)” value [1] is reported as “specifically kills cells expressing MAN2A1-FER”. For the same compound, the “killing of cells that do not express MAN2A1-FER” value [2] was “hardly killed”.
For `C=CC(=O)Nc1cc2c(Nc3ccc(F)c(Cl)c3)ncnc2cc1OCCCN1CCOCC1` [canertinib], the cell death [1] was 34%, the “specific killing of MAN2A1-FER expressing cells (FIG. 23)” value [1] was “specifically kills cells expressing MAN2A1-FER” and the “killing of cells that do not express MAN2A1-FER” value [2] was “minimal”.
`Nc1nc2c(ncn2COC(CO)CO)c(=O)[nH]1` [ganciclovir, 9-(1,3-dihydroxy-2-propoxymethyl)guanine] was tested, and the “cell deaths in cells containing no breakpoint” value [3] was “No significant cell deaths”, the EC50 ([4]; Homo sapiens, PC-3, 24 hours, read-out: ganciclovir concentration at which killing reached 50% of its maximal level) was 0.075 µg/mL (≈ 0.294 µM) and the “ganciclovir concentration at which killing was at the peak” value [4] was 5 µg/mL. The “increase of cell death” value ([5]; PC3 with breakpoint co-transfected with donor DNA and gRNA vector, liposome method) was 8 fold, the “specific killing of breakpoint containing cells (FIG. 28B)” value ([5]; transfected with pTMEM135-CCDC67-TK-GFP and pNicKase-RFP-gRNA-TMEM135-CCDC67-BrkPt) was “specific killing” and the “ganciclovir concentration at which killing was at the peak” value [6] was 5 µg/mL. The EC50 ([6]; Homo sapiens, DU-145, 24 hours, read-out: ganciclovir concentration at which killing reached 50% of its maximal level) was 0.075 µg/mL (≈ 0.294 µM), the cell death [7] was “minimal cell death” and the “cell deaths in cells containing no breakpoint” value [8] was “No significant cell deaths”.
`Cn1cnc2c(F)c(Nc3ccc(Br)cc3Cl)c(C(=O)NOCCO)cc21` [AZD6244] was tested, and the “differential killing effect (MAN2A1-FER expressing vs not)” value ([1]; MEK interception, data not shown) was “largely moderated and vanished”.
In the case of `O=c1c2ccccc2[se]n1-c1ccccc1` [Ebselen, ebselen], the IC50 (RWPE1 cells) is reported as greater than 300 µM, the IC50 ([9]; Homo sapiens, PC-3, PC3/SLAM tet+) is reported as 37 µM and the “higher sensitivity of cell growth inhibition over the controls” value ([9]; PC3 transformed with pCDNA4-SLC45A2-AMACR-FLAG/pCDNA6 vs controls) is reported as 5 fold. The IC50 [10] was 173 µM and the IC50 (NIH3T3 cells) was greater than 300 µM.
